Assays:
CpomOrco = CpomOrco (Cydia pomonella, UniProt H9A5M2); assay: Calcium imaging of HEK293T cells expressing homomeric CpomOrco; format: cell-based; conditions: peak amplitudes normalized to response at 1000 μM agonist, read-out: [A]1/2 half-effective concentration of agonist, calcium response
Method: HEK293T cells were grown in HEK cell media [Dulbecco’s modified Eagle’s medium containing 10% fetal bovine serum (MP Biomedicals, Solon, OH, USA), 2.0 mM L-glutamine, and 100 μg/mL Penicillin/Streptomycin (Invitrogen)] at 37 °C and 5% CO2. To test transient expression of CpomORs for calcium imaging or patch-clamp recording experiments, 35-mm petri dishes containing semi-confluent HEK293T cells were transiently transfected. To transfect cells with CpomOrco, we used 1.0 μg of pcDNA5/TO/CpomOrco DNA. In order to promote expression of the OR[51], we used double aliquots for pcDNA5/TO/CpomOR DNAs (2.0 μg), combined with 1.0 μg of pcDNA5/TO/CpomOrco for co-transfections (CpomOrco + ORs). […]
(§1) Fluorescence imaging was performed using Imaging Workbench 6 software (INDEC BioSystems, Santa Clara, CA, USA). Each cell was assigned a region of interest (ROI) and changes in fluorescence intensity within each ROI were measured and expressed as the fractional change in fluorescence intensity (dF) or in some cases as dF/F0 where F0 is the basal fluorescence level before agonist application. […] Continuous traces of multiple responses were compensated for slow drift of the baseline fluorescence when necessary. […]

CpomOrco + OR complexes = assay: Calcium imaging of HEK293T cells expressing heteromeric CpomOrco + OR complexes; format: cell-based, Cydia pomonella; conditions: heteromeric complexes; peak amplitudes normalized to response at 1000 μM agonist; read-out: [A]1/2 half-effective concentration of agonist, calcium response
Method: HEK293T cells were grown in HEK cell media [Dulbecco’s modified Eagle’s medium containing 10% fetal bovine serum (MP Biomedicals, Solon, OH, USA), 2.0 mM L-glutamine, and 100 μg/mL Penicillin/Streptomycin (Invitrogen)] at 37 °C and 5% CO2. To test transient expression of CpomORs for calcium imaging or patch-clamp recording experiments, 35-mm petri dishes containing semi-confluent HEK293T cells were transiently transfected. To transfect cells with CpomOrco, we used 1.0 μg of pcDNA5/TO/CpomOrco DNA. In order to promote expression of the OR[51], we used double aliquots for pcDNA5/TO/CpomOR DNAs (2.0 μg), combined with 1.0 μg of pcDNA5/TO/CpomOrco for co-transfections (CpomOrco + ORs). To report expression for calcium imaging experiments, 1.0 μg of a separate plasmid DNA [pEBFP2-Nuc, a gift from Robert Campbell (Addgene plasmid # 14893[52])] carrying the coding sequence for a blue fluorescent protein (BFP) was used. In patch-clamp recordings, 1.0 μg of a separate plasmid DNA (pXOOM, Clontech) carrying the coding sequence for a green fluorescent protein (GFP) was used to report expression. In order to report candidate OR-expressing cells, expression of both fluorescent reporter genes was under the regulation of the same promoter for CpomOR genes (CMV). Transfection DNAs were dissolved in 100 μL sterile DMEM, mixed with 3.0 μL Calfectin (SignaGen, Rockville, MD, USA) following the recommended protocol. To estimate transfection efficiency, a parallel transfection was conducted using the positive control vector pcDNA5/TO/LACZ (Invitrogen) and staining with 0.1% XGal[53]. […]
as §1

[1] = tested on: Un-transfected cells (HEK293T); assay: Whole-cell patch-clamp recording of un-transfected HEK293T cells; format: cell-based, human; conditions: 12 cells tested
Method: The OR channel activity was investigated using whole-cell and outside-out patch-clamp recordings. The currents were measured with a 200B patch-clamp amplifier (Molecular Devices) and a digital interface (Digidata 1320 A, Molecular Devices), low pass filtered at 5.0 kHz, sampled at 1-2 kHz. […] OR channel related currents were investigated at a holding potential of -50/+50 mV unless otherwise specified. The polarity of the currents/voltages was presented relative to intracellular membrane surface. Appropriate corrections for liquid junction potentials were made when necessary. Patch pipettes were fabricated from borosilicate capillary glass (BF150-86-10, Sutter Instrument, CA, USA) using a Flaming-Brown micropipette puller (P-87, Sutter Instrument). Only patches with initial cell-attached seal resistance estimated higher than 1.0 GOhms were used in the experiments. Intracellular (pipette) solution for whole-cell experiments was NaCl 140 mM, EGTA 0.5 mM, Hepes 10 mM, pH 7.4 (adjusted with Tris-base, standard Na^+ 140 mM), while bath solution was usually NaCl 140 mM, CaCl2 1.0 mM, MgCl2 0-1.0 mM, KCl 5.0 mM, Hepes 10 mM, pH 7.4 (adjusted with Tris-base or NaOH). The OR channel current noise was recorded using outside-out patches excised from HEK293T cells and evoked by stimulation with 250 μM VUAA3. […]

Chain of CpomOrco (H9A5M2 entry or part of it): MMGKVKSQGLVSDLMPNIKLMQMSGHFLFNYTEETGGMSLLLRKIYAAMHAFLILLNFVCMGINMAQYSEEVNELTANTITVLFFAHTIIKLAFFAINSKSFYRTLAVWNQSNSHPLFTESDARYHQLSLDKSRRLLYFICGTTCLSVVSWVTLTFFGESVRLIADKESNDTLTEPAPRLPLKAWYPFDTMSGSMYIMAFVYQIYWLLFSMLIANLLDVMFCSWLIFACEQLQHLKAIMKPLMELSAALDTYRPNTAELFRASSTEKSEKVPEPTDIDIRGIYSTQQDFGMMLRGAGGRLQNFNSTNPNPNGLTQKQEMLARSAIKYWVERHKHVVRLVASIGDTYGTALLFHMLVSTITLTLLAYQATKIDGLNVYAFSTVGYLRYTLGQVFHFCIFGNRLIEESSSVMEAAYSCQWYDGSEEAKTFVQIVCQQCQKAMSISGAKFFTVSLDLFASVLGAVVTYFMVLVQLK

- EC50 (CpomOrco): ~362 µM
SMILES: CCn1c(SCC(=O)Nc2ccc(C(C)C)cc2)nnc1-c1ccncc1 [VUAA3, acetamide,2-[[4-ethyl-5-(4-pyridinyl)-4H-1,2,4-triazol-3-yl]thio]-N-[4-(1-methylethyl)phenyl]-]
- EC50 (CpomOrco + OR complexes): ~140 µM
- sensitivity of un-transfected cells [1]: not sensitive

— article PMC5259778, “Candidate pheromone receptors of codling moth Cydia pomonella respond to pheromones and kairomones” (Scientific Reports, 2017)
